This is an account of results in patent US20090062253A1, “HETEROCYCLODIAZEPINE CANNABINOID RECEPTOR MODULATORS FOR TREATMENT OF DISEASE” (KALYPSYS, INC., priority 2007, published 2009).

Assay [1] deals with T1, Human CB2 (Homo sapiens, UniProt P34972).
T1 construct: expressed in transfected cells; membrane preparation
The experiment in a line: Human CB2 Radioligand Binding Assay. Conditions: membranes from stably transfected CHO CB2 cells; competition with [3H] CP-55,940; read-out: CB2 Ligand Binding Asssay. In short, it runs like this:
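Filtration competition against [3H]CP-55,940 at its Kd on membranes from CHO cells stably expressing human CB2; compounds at 10 uM single point or dose-response, 1% DMSO. Buffer 50 mM Tris-HCl pH 7.4, EGTA, MgCl2, 5.0 mg/ml BSA; 90 min at 30° C, scintillation read; 100 nM CP-55,940 = 100%.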

Assay [2] has as its target T2, human cannabinoid receptor type 1 (Homo sapiens, UniProt P21554).
T2 construct: purchased Perkin Elmer RBHCB1M; host or cells: HEK 293 EBNA cells
The experiment in a line: Human CB1 Radioligand Binding Assay (basis of selectivity CB2 vs. CB1). In short, it runs like this: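 Filtration competition binding against [3H] CP-55,940 at its Kd, using membranes from HEK 293 EBNA cells expressing human CB1; 90 minutes at 30° C in 50 mM Tris-HCl pH 7.4, 2.5 mM EDTA, 5 mM MgCl2, 5.0 mg/ml BSA, 1% DMSO. Single point 10 uM or dose-response; 100 nM CP-55,940 defined 100% efficacy.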

T2 sequence (P21554 whole entry): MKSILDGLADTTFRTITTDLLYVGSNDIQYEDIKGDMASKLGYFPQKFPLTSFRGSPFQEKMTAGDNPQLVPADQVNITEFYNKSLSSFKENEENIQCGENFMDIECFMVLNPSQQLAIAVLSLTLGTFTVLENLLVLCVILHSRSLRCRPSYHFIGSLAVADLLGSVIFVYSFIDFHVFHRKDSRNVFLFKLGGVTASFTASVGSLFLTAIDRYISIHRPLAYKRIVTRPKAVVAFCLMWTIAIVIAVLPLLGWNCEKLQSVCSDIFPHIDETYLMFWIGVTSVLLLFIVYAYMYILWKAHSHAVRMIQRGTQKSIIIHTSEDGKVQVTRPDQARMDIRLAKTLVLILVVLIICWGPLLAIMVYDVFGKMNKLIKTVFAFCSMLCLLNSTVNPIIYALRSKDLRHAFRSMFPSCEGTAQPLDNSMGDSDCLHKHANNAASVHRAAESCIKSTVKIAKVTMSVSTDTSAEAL
T1 sequence (P34972 whole entry): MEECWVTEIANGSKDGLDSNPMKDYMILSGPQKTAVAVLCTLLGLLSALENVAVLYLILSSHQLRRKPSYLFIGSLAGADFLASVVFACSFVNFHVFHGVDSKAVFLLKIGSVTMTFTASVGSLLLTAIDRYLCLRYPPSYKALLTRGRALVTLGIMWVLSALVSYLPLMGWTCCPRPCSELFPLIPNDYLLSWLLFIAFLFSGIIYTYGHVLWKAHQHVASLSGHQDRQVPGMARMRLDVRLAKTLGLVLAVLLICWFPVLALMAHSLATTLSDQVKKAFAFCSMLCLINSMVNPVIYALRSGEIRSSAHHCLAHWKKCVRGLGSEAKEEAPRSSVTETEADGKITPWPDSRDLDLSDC

On to `CC(C)(C)c1ccc(C2=C(NC(=O)Nc3ccc(Cl)cc3)CCCn3cccc32)cc1` [Example 83, (E)-1-(9-(4-tert-Butylphenyl)-6,7-dihydro-5H-pyrrolo[1,2-a]azepin-8-yl)-3-(4-chlorophenyl)urea], for which the IC50 (radioligand displacement) in assay [1] was below 1000 nM. For the same compound, in assay [2], the “Selectivity, CB2 vs. CB1” value is listed as “+ (+ indicates > 10-fold)”.

Turning to `CC(C)(C)c1ccc(C2=C(NC(=O)Nc3ccc(F)cc3F)CCCn3cccc32)cc1` [Example 84, (E)-1-(9-(4-tert-Butylphenyl)-6,7-dihydro-5H-pyrrolo[1,2-a]azepin-8-yl)-3-(2,4-difluorophenyl)urea], in assay [1], the IC50 (radioligand displacement) was below 1000 nM. For the same compound, the “Selectivity, CB2 vs. CB1” value in assay [2] is on record as “+ (+ indicates > 10-fold)”.

Consider `CC(C)(C)c1ccc(C2=C(NC(=O)Nc3ccc(F)c(F)c3)CCCn3cccc32)cc1` [Example 85, (E)-1-(9-(4-tert-Butylphenyl)-6,7-dihydro-5H-pyrrolo[1,2-a]azepin-8-yl)-3-(3,4-difluorophenyl)urea], for which the IC50 (radioligand displacement) in assay [1] was below 1000 nM. The “Selectivity, CB2 vs. CB1” value in assay [2] is reported as “+ (+ indicates > 10-fold)”.

Consider `CC(C)(C)c1ccc(C2=C(NC(=O)Nc3ccc(Cl)cc3Cl)CCCn3cccc32)cc1` [Example 86, (E)-1-(9-(4-tert-Butylphenyl)-6,7-dihydro-5H-pyrrolo[1,2-a]azepin-8-yl)-3-(2,4-dichlorophenyl)urea], for which the IC50 (radioligand displacement) in assay [1] is below 1000 nM. Moreover, the “Selectivity, CB2 vs. CB1” value in assay [2] is given as “+ (+ indicates > 10-fold)”.

With `CC(C)(C)c1ccc(C2=C(NC(=O)Nc3ccc(Cl)c(Cl)c3)CCCn3cccc32)cc1` [Example 87, (E)-1-(9-(4-tert-Butylphenyl)-6,7-dihydro-5H-pyrrolo[1,2-a]azepin-8-yl)-3-(3,4-dichlorophenyl)urea], the IC50 (radioligand displacement) in assay [1] is above 1000 nM. Moreover, the “Selectivity, CB2 vs. CB1” value in assay [2] was “+ (+ indicates > 10-fold)”.

As to `CC(C)(C)c1ccc(C2=C(NC(=O)Nc3ccc(C(F)(F)F)cc3)CCCn3cccc32)cc1` [Example 88, (E)-1-(9-(4-tert-Butylphenyl)-6,7-dihydro-5H-pyrrolo[1,2-a]azepin-8-yl)-3-(4-(trifluoromethyl)phenyl)urea], in assay [1], the IC50 (radioligand displacement) was below 1000 nM. Moreover, in assay [2], the “Selectivity, CB2 vs. CB1” value is listed as “+ (+ indicates > 10-fold)”.

Consider `COc1ccc(COC(=O)NC2=C(c3ccc(C(C)(C)C)cc3)c3cccn3CCC2)cc1` [Example 89, (E)-4-Methoxybenzyl 9-(4-tert-butylphenyl)-6,7-dihydro-5H-pyrrolo[1,2-a]azepin-8-ylcarbamate], for which the IC50 (radioligand displacement) in assay [1] is above 1000 nM. The “Selectivity, CB2 vs. CB1” value in assay [2] is “− (− indicates < 10-fold)”.

`CC(C)(C)c1ccc(C2c3cccn3CCCC2C(=O)Nc2ccc(F)c(F)c2)cc1` (stereo not drawn) [Example 91, 9-(4-tert-Butylphenyl)-N-(3,4-difluorophenyl)-6,7,8,9-tetrahydro-5H-pyrrolo[1,2-a]azepine-8-carboxamide]: the IC50 (radioligand displacement) in assay [1] was below 1000 nM. In addition, the “Selectivity, CB2 vs. CB1” value in assay [2] is “+ (+ indicates > 10-fold)”.

With `CC(C)(C)c1ccc(C2c3cccn3CCCC2C(=O)Nc2ccc(Cl)cc2)cc1` (stereo not drawn) [Example 92, 9-(4-tert-Butylphenyl)-N-(4-chlorophenyl)-6,7,8,9-tetrahydro-5H-pyrrolo[1,2-a]azepine-8-carboxamide], the IC50 (radioligand displacement) in assay [1] was below 1000 nM. Further, in assay [2], the “Selectivity, CB2 vs. CB1” value is reported as “+ (+ indicates > 10-fold)”.

Consider `CC(C)(C)c1ccc(C2c3cccn3CCCC2C(=O)Nc2ccc(C(F)(F)F)cc2)cc1` (stereo not drawn) [Example 93, 9-(4-tert-Butylphenyl)-N-(4-(trifluoromethyl)phenyl)-6,7,8,9-tetrahydro-5H-pyrrolo[1,2-a]azepine-8-carboxamide], for which, in assay [1], the IC50 (radioligand displacement) is below 1000 nM. The “Selectivity, CB2 vs. CB1” value in assay [2] is reported as “− (− indicates < 10-fold)”.

Consider `CC(C)(C)c1ccc(C2c3cccn3CCCC2C(=O)Nc2ccc(OC(F)(F)F)cc2)cc1` (stereo not drawn) [Example 94, 9-(4-tert-Butylphenyl)-N-(4-(trifluoromethoxy)phenyl)-6,7,8,9-tetrahydro-5H-pyrrolo[1,2-a]azepine-8-carboxamide], for which the IC50 (radioligand displacement) in assay [1] was below 1000 nM. Also, the “Selectivity, CB2 vs. CB1” value in assay [2] is listed as “− (− indicates < 10-fold)”.

Turning to `CC(C)(C)c1ccc(C2c3cccn3CCC2C(=O)Nc2ccc(C(F)(F)F)cc2)cc1` (stereo not drawn) [Example 96, 8-(4-tert-Butylphenyl)-N-(4-(trifluoromethyl)phenyl)-5,6,7,8-tetrahydroindolizine-7-carboxamide], the IC50 (radioligand displacement) in assay [1] was above 1000 nM. The “Selectivity, CB2 vs. CB1” value in assay [2] is reported as “− (− indicates < 10-fold)”.

With `CC(C)(C)c1ccc(C2c3cccn3CCC2C(=O)Nc2ccc(OC(F)(F)F)cc2)cc1` (stereo not drawn) [Example 97, 8-(4-tert-Butylphenyl)-N-(4-(trifluoromethoxy)phenyl)-5,6,7,8-tetrahydroindolizine-7-carboxamide], the IC50 (radioligand displacement) in assay [1] is above 1000 nM. Also, the “Selectivity, CB2 vs. CB1” value in assay [2] is on record as “− (− indicates < 10-fold)”.

As to `CC(C)(C)c1ccc(C2[C@@H]3CCCN3CCCN2C(=O)Nc2ccc(F)cc2F)cc1` (stereo partly drawn) [Example 129, (9aS)-1-(4-tert-Butylphenyl)-N-(2,4-difluorophenyl)hexahydro-1H-pyrrolo[1,2-a][1,4]diazepine-2(3H)-carboxamide], the IC50 (radioligand displacement) in assay [1] is below 1000 nM. In addition, in assay [2], the “Selectivity, CB2 vs. CB1” value was “+ (+ indicates > 10-fold)”.

For the compound `CC(C)(C)c1ccc(C2[C@@H]3CCCN3CCCN2C(=O)Nc2ccc(F)c(F)c2)cc1` (stereo partly drawn) [Example 130, (9aS)-1-(4-tert-Butylphenyl)-N-(3,4-difluorophenyl)hexahydro-1H-pyrrolo[1,2-a][1,4]diazepine-2(3H)-carboxamide], the IC50 (radioligand displacement) in assay [1] was below 1000 nM. Also, in assay [2], the “Selectivity, CB2 vs. CB1” value is reported as “+ (+ indicates > 10-fold)”.

Take `CC(C)(C)c1ccc(C2[C@@H]3CCCN3CCCN2C(=O)Nc2ccc(Cl)cc2)cc1` (stereo partly drawn) [Example 131, (9aS)-1-(4-tert-Butylphenyl)-N-(4-chlorophenyl)hexahydro-1H-pyrrolo[1,2-a][1,4]diazepine-2(3H)-carboxamide]: in assay [1], the IC50 (radioligand displacement) is below 1000 nM. Further, the “Selectivity, CB2 vs. CB1” value in assay [2] is on record as “+ (+ indicates > 10-fold)”.

Regarding `CC(C)(C)c1ccc(C2=C(C(=O)Nc3ccc(C(F)(F)F)cc3)CCn3cccc32)cc1` [Example 132, 8-(4-tert-Butylphenyl)-N-(4-(trifluoromethyl)phenyl)-5,6-dihydroindolizine-7-carboxamide], in assay [1], the IC50 (radioligand displacement) was below 1000 nM. Besides, in assay [2], the “Selectivity, CB2 vs. CB1” value was “− (− indicates < 10-fold)”.

Regarding `CC(C)(C)c1ccc(C2c3cccnc3CCCN2C(=O)Nc2ccc(F)cc2F)cc1` (stereo not drawn) [Example 134, 5-(4-tert-Butylphenyl)-N-(2,4-difluorophenyl)-8,9-dihydro-5H-pyrido[3,2-c]azepine-6(7H)-carboxamide], the IC50 (radioligand displacement) in assay [1] was below 1000 nM. Moreover, the “Selectivity, CB2 vs. CB1” value in assay [2] is recorded as “+ (+ indicates > 10-fold)”.

As for `CC(C)(C)c1ccc(C2c3cccnc3CCCN2C(=O)Nc2ccc(F)c(F)c2)cc1` (stereo not drawn) [Example 135, 5-(4-tert-Butylphenyl)-N-(3,4-difluorophenyl)-8,9-dihydro-5H-pyrido[3,2-c]azepine-6(7H)-carboxamide], in assay [1], the IC50 (radioligand displacement) is below 1000 nM. The “Selectivity, CB2 vs. CB1” value in assay [2] is given as “+ (+ indicates > 10-fold)”.

Take `CC(C)(C)c1ccc(C2c3cccnc3CCCN2C(=O)Nc2ccc(Cl)cc2Cl)cc1` (stereo not drawn) [Example 136, 5-(4-tert-Butylphenyl)-N-(2,4-dichlorophenyl)-8,9-dihydro-5H-pyrido[3,2-c]azepine-6(7H)-carboxamide]: the IC50 (radioligand displacement) in assay [1] was above 1000 nM. The “Selectivity, CB2 vs. CB1” value in assay [2] was “+ (+ indicates > 10-fold)”.

Consider `CC(C)(C)c1ccc(C2c3cccnc3OCCN2C(=O)Nc2ccc(F)cc2F)cc1` (stereo not drawn) [Example 138, 5-(4-tert-Butylphenyl)-N-(2,4-difluorophenyl)-2,3-dihydropyrido[3,2-f][1,4]oxazepine-4(5H)-carboxamide], for which the IC50 (radioligand displacement) in assay [1] is above 1000 nM. Further, in assay [2], the “Selectivity, CB2 vs. CB1” value is “− (− indicates < 10-fold)”.

For `CC(C)(C)c1ccc(C2c3cccnc3OCCN2C(=O)Nc2ccc(F)c(F)c2)cc1` (stereo not drawn) [Example 139, 5-(4-tert-Butylphenyl)-N-(3,4-difluorophenyl)-2,3-dihydropyrido[3,2-f][1,4]oxazepine-4(5H)-carboxamide], in assay [1], the IC50 (radioligand displacement) is above 1000 nM. For the same compound, the “Selectivity, CB2 vs. CB1” value in assay [2] is on record as “+ (+ indicates > 10-fold)”.

Regarding `CC(C)(C)c1ccc(C2c3cccnc3OCCN2C(=O)Nc2ccc(Cl)cc2Cl)cc1` (stereo not drawn) [Example 140, 5-(4-tert-Butylphenyl)-N-(2,4-dichlorophenyl)-2,3-dihydropyrido[3,2-f][1,4]oxazepine-4(5H)-carboxamide], the IC50 (radioligand displacement) in assay [1] is above 1000 nM. Further, the “Selectivity, CB2 vs. CB1” value in assay [2] was “− (− indicates < 10-fold)”.

“(8,9-cis)-9-Phenyl-N-(4-(trifluoromethyl)phenyl)-6,7,8,9-tetrahydro-5H-pyrrolo[1,2-a]azepine-8-carboxamide [Example 112]”: the IC50 (radioligand displacement) in assay [1] was above 1000 nM. Also, the “Selectivity, CB2 vs. CB1” value in assay [2] is listed as “− (− indicates < 10-fold)”.
